Data as given in patent publication US20200338084A1, “INHIBITORS OF LOW MOLECULAR WEIGHT PROTEIN TYROSINE PHOSPHATASE (LMPTP) AND USES THEREOF” (Sanford Burnham Prebys Medical Discovery Institute, priority 2018, published 2020).
pIC50: −log10 of the molar value.

Target: T1, human LMPTP-A (Homo sapiens, UniProt P24666)
T1 sequence (P24666 1-158): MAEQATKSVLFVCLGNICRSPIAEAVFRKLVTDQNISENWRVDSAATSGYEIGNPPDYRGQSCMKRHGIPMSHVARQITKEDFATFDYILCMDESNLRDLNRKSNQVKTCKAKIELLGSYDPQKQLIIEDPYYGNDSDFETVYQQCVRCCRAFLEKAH
Test: Enzyme Assay of Inhibition of LMPTP-A
Format: biochemical
Conditions: phosphatase assay, OMFP or pNPP substrate, 50 mM Bis-Tris pH 6.0, 37° C.
Description: Phosphatase assays were performed in buffer containing 50 mM Bis-Tris, pH 6.0, 1 mM DTT and 0.01% Triton X-100 at 37° C. For assays conducted with 3-O-methylfluorescein phosphate (OMFP) as substrate, fluorescence was monitored continuously at λex=485 and λem=525 nm. For assays conducted with para-nitrophenylphosphate (pNPP) as substrate, the reaction was stopped by addition of 2× reaction volume of 1 M NaOH, and absorbance was measured at 405 nm. IC50 values of compounds disclosed herein were determined from plots of inhibitor concentration versus percentage of enzyme activity. For inhibitor selectivity assays, each PTP was incubated with either 0.4 mM OMFP or 5 mM pNPP in the presence of 40 μM compound or DMSO. […] For the inhibitor reversibility assay, 50 nM human LMPTP-A was pre-incubated with 10 μM of compound disclosed herein or DMSO for 5 min. The enzyme was diluted 100× in phosphatase assay buffer containing 0.4 mM OMFP and fluorescence was measured at the indicated time points.

Row | pIC50 | SMILES
1 | ≥ 6.00 | Nc1ncn(Cc2c(Cl)cccc2Cl)c2nc(-c3ccccc3F)nc1-2 [3-[(2,6-Dichlorophenyl)methyl]-8-(2-fluorophenyl)-3-hydropurine-6-ylamine]
2 | ≥ 6.00 | Nc1ncn(Cc2c(Cl)cccc2Cl)c2nc(CCc3ccccc3)nc1-2 [3-[(2,6-Dichlorophenyl)methyl]-8-(2-phenylethyl)-3-hydropurine-6-ylamine]
3 | ≥ 6.00 | Nc1ncn(Cc2c(Br)cccc2Br)c2ncnc1-2 [3-(2,6-dibromobenzyl)-3H-purin-6-amine]
4 | ≥ 6.00 | Nc1ncn(Cc2c(Cl)cccc2Cl)c2nc(-c3cccs3)nc1-2 [3-[(2,6-Dichlorophenyl)methyl]-8-(2-thienyl)-3-hydropurine-6-ylamine]
5 | ≥ 6.00 | Nc1ncn(Cc2c(Cl)cccc2Cl)c2nc(-c3cccc(F)c3F)nc1-2 [3-[(2,6-dichlorophenyl)methyl]-8-(2,3-difluorophenyl)-3-hydropurine-6-ylamine]
6 | 4.70 to 6.00 | COC(=O)c1ccc(Nc2ncn(Cc3c(Cl)cccc3Cl)c3ncnc2-3)cc1 [Methyl 4-({3-[(2,6-dichlorophenyl)methyl]-3-hydropurin-6-yl}amino)benzoate]
7 | 4.70 to 6.00 | Fc1ccccc1Nc1ncn(Cc2c(Cl)cccc2Cl)c2ncnc1-2 [{3-[(2,6-Dichlorophenyl)methyl](3-hydropurin-6-yl)}(2-fluorophenyl)amine]
8 | 4.70 to 6.00 | O=C(Nc1ncn(Cc2c(Cl)cccc2Cl)c2ncnc1-2)c1ccccn1 [Pyridine-2-carboxylic acid [3-(2,6-dichloro-benzyl)-3H-purin-6-yl]-amide]
9 | ≥ 6.00 | Nc1ncn(Cc2c(Cl)cccc2Cl)c2nc(-c3cnccc3Cl)nc1-2 [3-[(2,6-Dichlorophenyl)methyl]-8-(4-chloro(3-pyridyl))-3-hydropurine-6-ylamine]
10 | ≥ 6.00 | CCCc1nc2c(N)ncn(Cc3c(Cl)cccc3Cl)c-2n1 [3-[(2,6-Dichlorophenyl)methyl]-8-propyl-3-hydropurine-6-ylamine]
11 | ≥ 6.00 | Nc1ncn(Cc2c(Cl)cccc2Cl)c2nc(Cc3ccc(Br)cc3)nc1-2 [3-[(2,6-Dichlorophenyl)methyl]-8-[(4-bromophenyl)methyl]-3-hydropurine-6-ylamine]
12 | 4.70 to 6.00 | Clc1cccc(Cl)c1Cn1cnc(NC2CC2)c2ncnc1-2 [Cyclopropyl-[3-(2,6-dichloro-benzyl)-3H-purin-6-yl]-amine]
13 | 4.70 to 6.00 | CC(=O)Nc1ncn(Cc2c(Cl)cccc2Cl)c2ncnc1-2 [N-[3-(2,6-Dichloro-benzyl)-3 H-purin-6-yl]-acetamide]
14 | ≥ 6.00 | COc1ccc(-c2nc3c(N)ncn(Cc4c(Cl)cccc4Cl)c-3n2)cc1 [3-[(2,6-Dichlorophenyl)methyl]-8-(4-methoxyphenyl)-3-hydropurine-6-ylamine]
15 | 4.70 to 6.00 | COc1ccc(Nc2ncn(Cc3c(Cl)cccc3Cl)c3ncnc2-3)cc1 [3-(2,6-Dichlorobenzyl)-N-(4-methoxyphenyl)-3H-purin-6-amine]
16 | ≥ 6.00 | COc1ccc(Cc2nc3c(N)ncn(Cc4c(Cl)cccc4Cl)c-3n2)cc1 [3-[(2,6-dichlorophenyl)methyl]-8-[(4-methoxyphenyl)methyl]-3-hydropurine-6-ylamine]
17 | 4.70 to 6.00 | Clc1cccc(Nc2ncn(Cc3c(Cl)cccc3Cl)c3ncnc2-3)c1Cl [(2,3-Dichlorophenyl){3-[(2,6-dichlorophenyl)methyl](3-hydropurin-6-yl)}amine]
18 | 4.70 to 6.00 | FC(F)(F)c1cccc(Nc2ncn(Cc3c(Cl)cccc3Cl)c3ncnc2-3)c1 [3-(2,6-dichlorobenzyl)-N-(3-(trifluoromethyl)phenyl)-3H-purin-6-amine]
19 | 4.70 to 6.00 | Nc1ncn(Cc2c(F)ccc(F)c2F)c2ncnc1-2 [3-(2,3,6-Trifluoro-benzyl)-3H-purin-6-ylamine]
20 | 4.70 to 6.00 | Brc1ccccc1Cn1cnc(NCc2ccco2)c2ncnc1-2 [[3-(2-Bromo-benzyl)-3H-purin-6-yl]-furan-2-ylmethyl-amine]
21 | 4.70 to 6.00 | Nc1ncn(Cc2ccc3ccccc3n2)c2ncnc1-2 [3-(quinolin-2-ylmethyl)-3H-purin-6-amine]
22 | ≥ 6.00 | Nc1ncn(Cc2c(Cl)cccc2Cl)c2nc(-c3cccc(Cl)n3)nc1-2 [3-[(2,6-Dichlorophenyl)methyl]-8-(6-chloro(2-pyridyl))-3-hydropurine-6-ylamine]
23 | 4.70 to 6.00 | Clc1ccc(Cl)c(Cn2cnc(NCc3ccco3)c3ncnc2-3)c1 [[3-(2,5-Dichloro-benzyl)-3H-purin-6-yl]-furan-2-ylmethyl-amine]
24 | 4.70 to 6.00 | Nc1ncn(Cc2c(Br)ccnc2Cl)c2ncnc1-2 [3-[(4-bromo-2-chloro-3-pyridyl)methyl]-3-hydropurine-6-ylamine]

Row | pIC50 | SMILES
25 | ≥ 6.00 | Nc1ncn(Cc2c(Cl)cccc2Cl)c2nc(-c3ccc(F)c(F)c3F)nc1-2 [3-[(2,6-dichlorophenyl)methyl]-8-(2,3,4-trifluorophenyl)-3-hydropurine-6-ylamine]
26 | ≤ 4.70 | Cc1ccccc1Cn1cnc(NCc2ccco2)c2ncnc1-2 [Furan-2-ylmethyl-[3-(2-methyl-benzyl)-3H-purin-6-yl]-amine]
27 | ≥ 6.00 | Nc1ncn(Cc2c(Cl)cccc2Cl)c2nc(-c3ccc(F)cc3F)nc1-2 [3-[(2,6-dichlorophenyl)methyl]-8-(2,4-difluorophenyl)-3-hydropurine-6-ylamine]
28 | ≥ 6.00 | N#Cc1ccccc1-c1nc2c(N)ncn(Cc3c(Cl)cccc3Cl)c-2n1 [2-{6-Amino-3-[(2,6-dichlorophenyl)methyl]-3-hydropurin-8-yl}benzenecarbonitrile]
29 | ≤ 4.70 | Clc1cccc(Cl)c1Cn1cnc(N2CCOCC2)c2ncnc1-2 [3-(2,6-Dichloro-benzyl)-6-morpholin-4-yl-3H-purine]
30 | ≥ 6.00 | Nc1ncn(Cc2c(Cl)cccc2I)c2ncnc1-2 [3-(2-Chloro-6-iodo-benzyl)-3H-purin-6-ylamine]
31 | ≥ 6.00 | Nc1ncn(Cc2c(Cl)cccc2Cl)c2nc(-c3ccc(F)cc3)nc1-2 [3-[(2,6-Dichlorophenyl)methyl]-8-(4-fluorophenyl)-3-hydropurine-6-ylamine]
32 | 4.70 to 6.00 | Clc1cccc(Cl)c1Cn1cnc(NCc2cccnc2)c2ncnc1-2 [[3-(2,6-Dichloro-benzyl)-3H-purin-6-yl]-pyridin-3-ylmethyl-amine]
33 | 4.70 to 6.00 | COc1ccccc1Nc1ncn(Cc2c(Cl)cccc2Cl)c2ncnc1-2 [{3-[(2,6-Dichlorophenyl)methyl](3-hydropurin-6-yl)}(2-methoxyphenyl)amine]
34 | 4.70 to 6.00 | Clc1cccc(Cl)c1Cn1cnc(Nc2ccccc2)c2ncnc1-2 [{3-[(2,6-Dichlorophenyl)methyl](3-hydropurin-6-yl)}phenylamine]
35 | ≥ 6.00 | Nc1ncn(Cc2c(F)cccc2I)c2ncnc1-2 [3-(2-Fluoro-6-iodo-benzyl)-3H-purin-6-ylamine]
36 | 4.70 to 6.00 | Cc1cccc(Nc2ncn(Cc3c(Cl)cccc3Cl)c3ncnc2-3)c1C [{3-[(2,6-Dichlorophenyl)methyl](3-hydropurin-6-yl)}(2,3-dimethylphenyl)amine]
37 | ≤ 4.70 | COc1ccccc1Cn1cnc(NCc2ccco2)c2ncnc1-2 [Furan-2-ylmethyl-[3-(2-methoxy-benzyl)-3H-purin-6-yl]-amine]
38 | 4.70 to 6.00 | COc1ccc(CNc2ncn(Cc3c(Cl)cccc3Cl)c3ncnc2-3)c(OC)c1 [3-(2,6-dichlorobenzyl)-N-(2,4-dimethoxybenzyl)-3H-purin-6-amine]
39 | ≤ 4.70 | Cc1cccc(Cn2cnc(N)c3ncnc2-3)n1 [3-(6-Methyl-pyridin-2-ylmethyl)-3H-purin-6-ylamine]
40 | 4.70 to 6.00 | Fc1cccc(Nc2ncn(Cc3c(Cl)cccc3Cl)c3ncnc2-3)c1 [{3-[(2,6-Dichlorophenyl)methyl](3-hydropurin-6-yl)}(3-fluorophenyl)amine]
41 | 4.70 to 6.00 | N#Cc1ccc(CNc2ncn(Cc3c(Cl)cccc3Cl)c3ncnc2-3)cc1 [4-[({3-[(2,6-dichlorophenyl)methyl]-3-hydropurin-6-yl}amino)methyl]benzenecarbonitrile]
42 | ≤ 4.70 | Nc1ncn(Cc2c(Cl)cccc2Cl)c2nc(-c3cc[nH]n3)nc1-2 [3-[(2,6-Dichlorophenyl)methyl]-8-pyrazol-5-yl-3-hydropurine-6-ylamine]
43 | ≥ 6.00 | Cc1ccccc1-c1nc2c(N)ncn(Cc3c(Cl)cccc3Cl)c-2n1 [3-[(2,6-Dichlorophenyl)methyl]-8-(2-methylphenyl)-3-hydropurine-6-ylamine]
44 | 4.70 to 6.00 | Clc1cccc(Cn2cnc(NCc3ccco3)c3ncnc2-3)c1Cl [3-(2,3-dichlorobenzyl)-N-(furan-2-ylmethyl)-3H-purin-6-amine]
45 | ≤ 4.70 | NCCNc1ncn(Cc2c(Cl)cccc2Cl)c2ncnc1-2 [(2-Aminoethyl){3-[(2,6-dichlorophenyl)methyl](3-hydropurin-6-yl)}amine]
46 | 4.70 to 6.00 | FC(F)Oc1cccc(Nc2ncn(Cc3c(Cl)cccc3Cl)c3ncnc2-3)c1 [3-(2,6-dichlorobenzyl)-N-(3-(difluoromethoxy)phenyl)-3H-purin-6-amine]
47 | ≥ 6.00 | N#Cc1cccc(Cl)c1Cn1cnc(N)c2ncnc1-2 [2-((6-amino-3H-purin-3-yl)methyl)-3-chlorobenzonitrile]
48 | ≥ 6.00 | N#Cc1cccc(-c2nc3c(N)ncn(Cc4c(Cl)cccc4Cl)c-3n2)c1 [3-{6-Amino-3-[(2,6-dichlorophenyl)methyl]-3-hydropurin-8-yl}benzenecarbonitrile]
